Measured values: US9650364B2, “Quinazolines as kinase inhibitors” (GlaxoSmithKline Intellectual Property Development Limited, priority 2013, dated 2017)
Where two headings read alike, the source gives them in different places.

Key:
[1] = system: RIP2 kinase-dependent cytokine production (TNFα) in human whole blood; assay: MDP-stimulated human whole blood cytokine (TNFα) production assay; type: cell-based; settings: inhibition of TNFα, MDP 100 ng/mL, 6 hr, mean of minimum 2 experiments
Method: A muramyl dipeptide (MDP)-stimulated human whole blood cytokine production assay was developed to evaluate the cellular potency and efficacy of novel test compounds. Heparinized blood (160 μL) obtained from healthy human volunteers was dispensed into individual wells of a multiwell plate. Test compounds were dissolved in 100% DMSO and diluted in calcium- and magnesium-free D-PBS to prepare 10× working stock solutions. Twenty microliters of diluted test compound was added per well and the plates were placed on a plate shaker (500 rpm) and incubated for 30 min in a humidified incubator (37° C., 5% CO2). A 10× working stock of MDP was prepared in sterile, endotoxin-free water containing 1% DMSO. Twenty microliters of the MDP stock solution was added per well (final conc.=100 ng/mL) to stimulate RIP2 kinase-dependent cytokine production. The final concentration of DMSO was 0.1% (v/v) in all wells. Plates were incubated for an additional 6 hr (as noted above). Then an additional 100 μL of D-PBS (Dulbecco's phosphate-buffered saline) was added/well, the plates were centrifuged, and supernatants collected. TNFα levels in the supernatants were quantified using a commercial immunoassay (MesoScale Discovery). Test compound inhibition was expressed as percent (%) inhibition of internal assay controls. For concentration/dose response experiments, normalized data were fit and pIC50s determined using conventional techniques. The pIC50s are averaged to determine a mean value, for a minimum of 2 experiments.

[2] = molecular target: T1, RIPK2 (full length FLAG His tagged) (Homo sapiens, UniProt O43353); assay: Fluorescent polarization based binding assay at the ATP binding pocket of RIPK2; settings: RIPK2 FP binding
T1 construct: Full length FLAG His tagged RIPK2 was purified from a Baculovirus expression system; FLAG (N); 6His (N); made in house; host or cells: Spodoptera frugiperda (Sf9) insect cells, baculovirus
Description: A fluorescent polarization based binding assay was developed to quantitate interaction of novel test compounds at the ATP binding pocket of RIPK2, by competition with a fluorescently labeled ATP competitive ligand. Full length FLAG His tagged RIPK2 was purified from a Baculovirus expression system and was used at a final assay concentration of twice the KDapparent. A fluorescent labeled ligand (5-({[2-({[3-({4-[(5-hydroxy-2-methylphenyl)amino]-2-pyrimidinyl}amino)phenyl]carbonyl}amino)ethyl]amino}carbonyl)-2-(6-hydroxy-3-oxo-3H-xanthen-9-yl)benzoic acid, prepared as described in WO2011/120025) was used at a final assay concentration of 5 nM. Both the enzyme and ligand were prepared in solutions in 50 mM HEPES pH7.5, 150 mM NaCl, 10 mM MgCl2, 1 mM DTT, and 1 mM CHAPS. Test compounds were prepared in 100% DMSO and 100 nL was dispensed to individual wells of a multiwell plate. Next, 5 ul RIPK2 was added to the test compounds at twice the final assay concentration, and incubated at rt for 10 min. Following the incubation, 5 ul of the fluorescent labeled ligand solution, was added to each reaction, at twice the final assay concentration, and incubated at rt for at least 10 min. Finally, samples were read on an instrument capable of measuring fluorescent polarization. Test compound inhibition was expressed as percent (%) inhibition of internal assay controls.
For concentration/dose response experiments, normalized data were fit and pIC50s determined using conventional techniques. The pIC50s are averaged to determine a mean value, for a minimum of 2 experiments.
Full-length human RIPK2 (receptor-interacting serine-threonine kinase 2) cDNA was purchased from Invitrogen (Carlsbad, Calif., USA, Clone ID:IOH6368, RIPK2-pENTR 221). Gateway® LR cloning was used to site-specifically recombine RIPK2 downstream to an N-terminal FLAG-6His contained within the destination vector pDEST8-FLAG-His6 according to the protocol described by Invitrogen. Transfection into Spodoptera frugiperda (Sf9) insect cells was performed using Cellfectin® (Invitrogen), according to the manufacturer's protocol.

[3] = system: isolated rabbit left ventricular wedge preparation; assay: Rabbit cardiac wedge preparation (ECG and isometric contractile force); settings: for TdP Score: BCL=2000 ms, score range −2 to 14; for TdP Score / ICF (% change), contractility / QRS / QT / Tp-e (msec), transmural dispersion / Δ QT %: mean, n = 2; for Proarrhythmia: preparations affected of n = 2
Method: Female rabbits weighing 2.2-3 kg were anticoagulated with heparin and anesthetized with pentobarbital (50 mg/kg, i.v.). The chest was opened via a left thoracotomy, and the heart was excised and placed in a cardioplegic solution consisting of cold (4° C.) normal Tyrode's solution. A transmural wedge with dimensions of approximately 1.5 cm wide and 2-3 cm long was dissected from the left ventricle.
The wedge tissue was cannulated via the left anterior descending artery or the circumflex artery and perfused with cardioplegic solution. The preparation was then placed in a small tissue bath and arterially perfused with Tyrode's solution (T: 35.7±0.1° C., perfusion pressure: 30-45 mmHg). The ventricular wedge was allowed to equilibrate in the tissue bath until electrically stable, usually one hour. The preparations were stimulated at basic cycle lengths (BCL) of 1000 and 2000 msec using bipolar silver electrodes insulated except at the tips and applied to the endocardial surface.
A transmural electrocardiogram (ECG) was recorded in all experiments using extracellular silver/silver chloride electrodes placed in the Tyrode's solution bathing the preparation 1.0 to 1.5 cm from the epicardial and endocardial surfaces, along the same vector as the transmembrane recordings (Epi: “+” pole). On the ECG, transmural dispersion of repolarization (TDR) was defined by the interval between the end and the peak of T wave (Tp-e). The QT interval was defined as the time from the onset of the QRS to the point at which the final downslope of the T wave crossed the isoelectric line. QRS, QT, and Tp-e durations are measured for 10 sweeps and averaged per treatment. Data from total population of animals is averaged per treatment, and compared to average control values.
isometric contractile force generation (% ICF) is measured for 10 sweeps and averaged per treatment. Data from total population of animals is averaged per treatment, and compared to average control values.
Each test compound was prepared in 100% DMSO at a stock concentration of 30 mM. Compound was diluted to the highest concentration tested into Tyrode's buffer (containing in mM: 129 NaCl, 4 KCl, 0.9 NaH2PO4, 20 NaHCO3, 1.8 CaCl2, 0.5 MgSO4, and 5.5 glucose, pH 7.4 when buffered with 95% O2 and 5% CO2) from which subsequent serial dilutions were prepared.
Each test compound was tested at 4 concentrations, from 1-30 μM. After the wedge preparations were perfused with normal Tyrode's solution and stimulated at a BCL of 1000 msec for one hour, stimulation frequency was reduced to a BCL of 2000 msec for a 5 minute period of stabilization after which baseline ECG and isometric contractile force (ICF) were recorded. The preparations were then returned to a BCL of 1000 msec and perfused with Tyrode's solution containing a test compound. For each test compound concentration, wedge preparations were perfused for 20 minutes at a BCL of 1000 msec followed by 5 minutes at a BCL of 2000 msec during which ECG and ICF were recorded. The compound of Example 2 (6-(tert-butylsulfonyl)-N-(4,5-dimethyl-1H-pyrazol-3-yl)-7-ethoxyquinazolin-4-amine) was evaluated in the rabbit cardiac wedge preparation. The four major readouts from the wedge preparation include QT prolongation, torsadogenicity (TdP score derived from QT, Tp-e and early after depolarizations), impulse conduction (QRS-related) and contractility, which are presented in Table 2.
A scoring system was used for the estimate of risk of a compound for the relative TdP risk using the isolated rabbit left ventricular wedge preparation: points for the QT interval, the Tp-e/QT ratio. The TdP score was generated by first converting the QT interval and Tp-e/QT ratio to % change from baseline. These values are individually assigned a TdP score based on the following system: <−5%=−1, −5% to 10%=0, 10% to 20%=1, 20% to 30%=2, >30%=3. Total scoring system range is −2 to 14 at BCL=2000 ms.

337 member kinase panel = assay: Kinome selectivity, in vitro profiling (Reaction Biology Corporation); type: biochemical; settings: compound at 1 μM
Method: Kinome selectivity (as conducted by Reaction Biology Corporation, One Great Valley Parkway, Malvern, Pa., USA, 19355, http://www.reactionbiology.com) for the compound of Example 2 (6-(tert-butylsulfonyl)-N-(4,5-dimethyl-1H-pyrazol-3-yl)-7-ethoxyquinazolin-4-amine) was determined via in vitro profiling against a 337 member kinase panel.

[4] = mean of minimum 2 experiments, read-out: pIC50 (converted)
[5] = updated average after continued testing, read-out: average pIC50 after continued testing (converted)

T1 sequence (O43353 whole entry): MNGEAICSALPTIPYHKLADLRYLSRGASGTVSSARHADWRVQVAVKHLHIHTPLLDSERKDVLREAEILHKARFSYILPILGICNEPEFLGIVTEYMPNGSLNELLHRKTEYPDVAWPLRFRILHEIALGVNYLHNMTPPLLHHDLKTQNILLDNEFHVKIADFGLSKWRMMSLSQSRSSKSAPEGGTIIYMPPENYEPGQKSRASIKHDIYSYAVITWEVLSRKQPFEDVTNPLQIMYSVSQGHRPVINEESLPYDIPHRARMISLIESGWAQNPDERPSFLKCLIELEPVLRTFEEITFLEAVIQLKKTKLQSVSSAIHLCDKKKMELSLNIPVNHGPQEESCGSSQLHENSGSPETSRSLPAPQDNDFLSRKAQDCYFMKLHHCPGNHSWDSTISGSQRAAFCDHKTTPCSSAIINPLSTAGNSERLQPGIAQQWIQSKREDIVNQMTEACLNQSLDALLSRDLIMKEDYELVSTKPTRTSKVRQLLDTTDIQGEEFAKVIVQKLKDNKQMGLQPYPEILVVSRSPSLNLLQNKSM

Compound: Cc1[nH]nc(Nc2ncnc3cc(OCC4CCCO4)c(S(=O)(=O)C(C)(C)C)cc23)c1C (stereo not shown) [Example 4, 6-(tert-Butylsulfonyl)-N-(4,5-dimethyl-1H-pyrazol-3-yl)-7-((tetrahydrofuran-2-yl)methoxy)quinazolin-4-amine]
- IC50 [1]: 63.1 nM
- IC50 [2, 4]: 10 nM

Compound: COCCOc1cc2ncnc(Nc3n[nH]c(C)c3C)c2cc1S(=O)(=O)C(C)(C)C [Example 1, 6-(tert-Butylsulfonyl)-N-(4,5-dimethyl-1H-pyrazol-3-yl)-7-(2-methoxyethoxy)quinazolin-4-amine]
- IC50 [1]: 39.8 nM
- IC50 [2, 4]: 39.8 nM
- IC50 [2, 5]: 31.6 nM

Compound: CCCOc1cc2ncnc(Nc3n[nH]c(C)c3C)c2cc1S(=O)(=O)C(C)(C)C [Example 3, 6-(tert-Butylsulfonyl)-N-(4,5-dimethyl-1H-pyrazol-3-yl)-7-propoxyquinazolin-4-amine]
- IC50 [1]: 100 nM
- IC50 [2, 4]: 12.6 nM
- IC50 [2, 5]: 7.94 nM

Compound: CCOc1cc2ncnc(Nc3n[nH]c(C)c3C)c2cc1S(=O)(=O)C(C)(C)C [Example 2, 6-(tert-Butylsulfonyl)-N-(4,5-dimethyl-1H-pyrazol-3-yl)-7-ethoxyquinazolin-4-amine]
- IC50 [1]: 63.1 nM
- TdP Score ([3]; 1 μM): −0.50
- ICF (% change), contractility ([3]; 1 μM): −4.4%
- QRS ([3]; 1 μM): 39.6 ms
- QT ([3]; 1 μM): 346.4 ms
- Tp-e (msec), transmural dispersion ([3]; 1 μM): 71.9 ms
- Δ QT % ([3]; 1 μM): 3%
- Proarrhythmia ([3]; 1 μM): 0/2
- TdP Score ([3]; 3 μM): 0.00
- ICF (% change), contractility ([3]; 3 μM): −5.3%
- QRS ([3]; 3 μM): 39.2 ms
- QT ([3]; 3 μM): 351.9 ms
- Tp-e (msec), transmural dispersion ([3]; 3 μM): 73.2 ms
- Δ QT % ([3]; 3 μM): 4.8%
- Proarrhythmia ([3]; 3 μM): 0/2
- TdP Score ([3]; 10 μM): −0.50
- ICF (% change), contractility ([3]; 10 μM): −15.1%
- QRS ([3]; 10 μM): 39.4 ms
- QT ([3]; 10 μM): 348.8 ms
- Tp-e (msec), transmural dispersion ([3]; 10 μM): 68.4 ms
- Δ QT % ([3]; 10 μM): 4.0%
- Proarrhythmia ([3]; 10 μM): 0/2
- TdP Score ([3]; 30 μM): −0.50
- ICF (% change), contractility ([3]; 30 μM): −20.7%
- QRS ([3]; 30 μM): 39.7 ms
- QT ([3]; 30 μM): 348.8 ms
- Tp-e (msec), transmural dispersion ([3]; 30 μM): 69.1 ms
- Δ QT % ([3]; 30 μM): 4.0%
- Proarrhythmia ([3]; 30 μM): 0/2
- number of kinases with >50% inhibition, of 337 kinases tested (337 member kinase panel): 4
- number of kinases with >70% inhibition, of 337 kinases tested (337 member kinase panel): 1
- IC50 [2, 4]: 15.8 nM
